The source made the active and inactive calls. The rule behind the calls is not given here.

Data set [1] deals with MDA-MB-231. Kind of data set: Induction of morphological changes in red fluorescent labelled human MDA-MB-231 cells assessed as rounded-up cells at 6.25 to 1000 nM after 16 hrs by microscopic analysis. It is filed as functional, cell-based.
The test system of data set [2] is MDA-MB-231. Kind of data set: Growth inhibition of human MDA-MB-231 cells after 3 days by DAPI staining. As to conditions: MDA-MB-231, 72 h. It is filed as functional.
Another data set deals with MDA-MB-435. The data set is described as follows: Inhibition of oestrogen, progesterone and HER2/neu receptor triple negative human MDA-MB-435 cell proliferation assessed as [3H]thymidine incorporation into DNA helix after 3 days by betaplate counting analysis. It is filed as functional, cell-based.
Data set [3] relates to MDA-MB-231. Kind of data set: Cell cycle arrest in human MDA-MB-231 cells assessed as cell shifting from dominant G0/G1 phases to G2/M phases at 1 uM after 16 to 24 hrs by flow cytometry. The class given is functional, cell-based.
A short description of data set [4]: Inhibition of ER-positive human TamR6 cell proliferation assessed as [3H]thymidine incorporation into DNA helix after 3 days by betaplate counting analysis. The class given is functional, cell-based.
The next data set concerns BT-20. The data set is described as follows: Inhibition of oestrogen, progesterone and HER2/neu receptor triple negative human BT20 cell proliferation assessed as [3H]thymidine incorporation into DNA helix after 3 days by betaplate counting analysis. It is filed as functional, cell-based.
The test system of another data set is HBL-100. The data set is described as follows: Inhibition of oestrogen, progesterone and HER2/neu receptor triple negative human HBL100 cell proliferation assessed as [3H]thymidine incorporation into DNA helix after 3 days by betaplate counting analysis. The class given is functional, cell-based.
Data set [5] has as its system MCF7. The data set is described as follows: Cell cycle arrest in human MCF7 cells assessed as cell accumulation at S phase at 1 uM after 16 to 24 hrs by flow cytometry. It is filed as functional, cell-based.
For another data set, the system named is SK-BR-3. The data set is described as follows: Inhibition of HER2-overexpressing human SKBR3 cell proliferation assessed as [3H]thymidine incorporation into DNA helix after 3 days by betaplate counting analysis. It is filed as functional, cell-based.
For a further data set, the system named is MDA-MB-436. Kind of data set: Inhibition of oestrogen, progesterone and HER2/neu receptor triple negative human MDA-MB-436 cell proliferation assessed as [3H]thymidine incorporation into DNA helix after 3 days by betaplate counting analysis. The class given is functional.
The nature of data set [6]: Inhibition of ER-positive human TamR7 cell proliferation assessed as [3H]thymidine incorporation into DNA helix after 3 days by betaplate counting analysis. The class given is functional, cell-based.
The test system of data set [7] is MDA-MB-231. The data set is described as follows: Cell cycle arrest in human MDA-MB-231 cells assessed as cell accumulation at S phase at 1 uM after 16 to 24 hrs by flow cytometry. The class given is functional, cell-based.
In data set [8] the test system is MDA-MB-231. Kind of data set: Inhibition of oestrogen, progesterone and HER2/neu receptor triple negative human MDA-MB-231 cell proliferation assessed as [3H]thymidine incorporation into DNA helix after 3 days by betaplate counting analysis. It is filed as functional, cell-based.
The subject of data set [9] is T47D. Kind of data set: Inhibition of ER-positive human T47D cell proliferation assessed as [3H]thymidine incorporation into DNA helix after 3 days by betaplate counting analysis. The class given is functional, cell-based.
The subject of the next data set is MDA-MB-453. Kind of data set: Inhibition of oestrogen, progesterone and HER2/neu receptor triple negative human MDA-MB-453 cell proliferation assessed as [3H]thymidine incorporation into DNA helix after 3 days by betaplate counting analysis. The class given is functional, cell-based.
The test system of data set [10] is MDA-MB-231. Kind of data set: Induction of morphological changes in red fluorescent labelled human MDA-MB-231 cells assessed as rounded-up cells after 16 hrs by microscopic analysis. It is filed as functional, cell-based.
A short description of data set [11]: Inhibition of ER-positive human KPL1 cell proliferation assessed as [3H]thymidine incorporation into DNA helix after 3 days by betaplate counting analysis. Particulars: KPL-1. It is filed as functional, cell-based.
Data set [12] in a line: Inhibition of ER-positive human TamC6 cell proliferation assessed as [3H]thymidine incorporation into DNA helix after 3 days by betaplate counting analysis. The class given is functional, cell-based.
Data set [13] concerns T47D. The data set is described as follows: Cell cycle arrest in human T47D cells assessed as cell shifting from dominant G0/G1 phases to G2/M phases at 1 uM after 16 to 24 hrs by flow cytometry. It is filed as functional, cell-based.
Data set [14] relates to MCF7. The data set is described as follows: Cell cycle arrest in human MCF7 cells assessed as cell shifting from dominant G0/G1 phases to G2/M phases at 1 uM after 16 to 24 hrs by flow cytometry. The class given is functional, cell-based.
Data set [15] relates to MDA-MB-468. The data set is described as follows: Cell cycle arrest in human MDA-MB-468 cells assessed as cell shifting from dominant G0/G1 phases to G2/M phases at 1 uM after 16 to 24 hrs by flow cytometry. The class given is functional, cell-based.
In data set [16] the test system is MDA-MB-468. Kind of data set: Cell cycle arrest in human MDA-MB-468 cells assessed as cell accumulation at S phase at 1 uM after 16 to 24 hrs by flow cytometry. It is filed as functional, cell-based.
Data set [17] deals with MDA-MB-231. The data set is described as follows: Inhibition of red fluorescent mKATE2 labelled human MDA-MB-231 cell migration assessed as displacement of wound edges at 1 uM after 24 hrs by wound healing assay. The class given is functional. As to conditions: MDA-MB-231, 24 h.
Data set [18] deals with MDA-MB-468. Kind of data set: Inhibition of oestrogen, progesterone and HER2/neu receptor triple negative human MDA-MB-468 cell proliferation assessed as [3H]thymidine incorporation into DNA helix after 3 days by betaplate counting analysis. The class given is functional, cell-based.
The subject of data set [19] is MDA-MB-231. Kind of data set: Reduction in red fluorescent mKATE2 labelled human MDA-MB-231 cell number at 1 uM after 24 hrs by fluorescent microscopic analysis. The class given is ADME, cell-based. Particulars: mda-mb-231, 24 h.
Data set [20] is described as follows: Inhibition of ER-positive human TamR3 cell proliferation assessed as [3H]thymidine incorporation into DNA helix after 3 days by betaplate counting analysis. It is filed as functional, cell-based.
A short description of data set [21]: Inhibition of ER-positive human TamC3 cell proliferation assessed as [3H]thymidine incorporation into DNA helix after 3 days by betaplate counting analysis. The class given is functional, cell-based.
In data set [22] the test system is T47D. Kind of data set: Cell cycle arrest in human T47D cells assessed as cell accumulation at S phase at 1 uM after 16 to 24 hrs by flow cytometry. The class given is functional, cell-based.
The subject of data set [23] is MCF7. Kind of data set: Inhibition of ER-positive human MCF7 cell proliferation assessed as [3H]thymidine incorporation into DNA helix after 3 days by betaplate counting analysis. It is filed as functional, cell-based.

With `CC(=O)Nc1cccc(-n2c(=O)n(C3CC3)c(=O)c3c(Nc4ccc(I)cc4F)n(C)c(=O)c(C)c32)c1` [TRAMETINIB], the result with MDA-MB-231 [1] was inactive. The same compound came in with a GI50 in the data set on MDA-MB-231 [2] of 25 nM.
Take `Nc1c(C(=O)Nc2cccc(Cl)c2)sc2nc3c(cc12)C(=O)CCC3`: the IC50 in the data set on MDA-MB-435 stood at 77 nM; in data set [4], 105 nM; in the data set with BT-20 it was 194 nM; in the data set on HBL-100, 265 nM; with SK-BR-3 it was 138 nM; in the data set with MDA-MB-436, 157 nM. Also, the IC50 in data set [6] came to 154 nM; in the data set with MDA-MB-231 [8], 357 nM; with T47D [9] it was 570 nM; with MDA-MB-453, 186 nM; in data set [11] it was 106 nM; in data set [12], 102 nM. Besides, the IC50 in the data set with MDA-MB-468 [18] came to 163 nM; in data set [20], 120 nM; in data set [21], 122 nM; in the data set with MCF7 [23] it was 125 nM. Besides, the result in the data set on MDA-MB-231 [3], in the data set on MDA-MB-231 [10], in the data set on T47D [13], with MCF7 [14] and in the data set on MDA-MB-468 [15] was Active. Moreover, the result with MCF7 [5], in the data set with MDA-MB-231 [7], with MDA-MB-468 [16] and in the data set on T47D [22] was inactive. Besides, the inhibition at 1 µM with MDA-MB-231 [17] was 50%. Besides, the Activity entry in the data set on MDA-MB-231 [19] was “Toxic”.

(Values after ChEMBL document CHEMBL3132762, “The effect of a thieno[2,3-b]pyridine PLC- inhibitor on the proliferation, morphology, migration and cell cycle of breast cancer cells” (Medchemcomm, 2014).)
